Laboratory results reported in patent publication US20170253917A1, “METHODS AND SYSTEMS FOR DETERMINING ANTIBIOTIC SUSCEPTIBILITY” (priority 2016, published 2017).

Test system: 1496 clinical isolates of E. coli
Assay: Phenotypic antibiotic susceptibility testing, MicroScan WalkAway plus System, Neg MIC 45 panel
Format: cell-based
Conditions: for Phenotype of the E. coli isolates in words: 1496 E. coli isolates; for Measured Phenotype Susceptible (%) / Measured Phenotype Resistant (%): share of the 1496 E. coli isolates; for Measured Phenotype Resistant (%): resistant or intermediate combined as resistant
Protocol: Phenotypic antibiotic susceptibility testing was performed and an antibiotic response of resistant, intermediate or susceptible was assigned to each E. coli isolate per antibiotic based on minimal inhibitory concentrations as described in the MicroScan product insert. Phenotypic antibiotic susceptibility testing was performed on the 1496 E. coli isolates using the MicroScan WalkAway plus System and the Neg MIC 45 panel (P/N B1017-424) which covers 25 antibiotics. Cryopreserved isolates were sub-cultured twice on blood agar plates prior to antibiotic susceptibility testing. The MicroScan instrument was used to assign an antibiotic response of resistant, intermediate or susceptible for each isolate per antibiotic based on minimal inhibitory concentrations as described in the MicroScan product insert. Assignments of resistant or intermediate were combined and reported as resistant in this example. Assignments of susceptible are reported as such in this example.

| Molecule | Phenotype of the E. coli isolates in words | Measured Phenotype Susceptible (%) | Measured Phenotype Resistant (%) |
| --- | --- | --- | --- |
| NCC[C@H](O)C(=O)N[C@@H]1C[C@H](N)[C@@H](O[C@H]2O[C@H](CN)[C@@H](O)[C@H](O)[C@H]2O)[C@H](O)[C@H]1O[C@H]1O[C@H](CO)[C@@H](O)[C@H](N)[C@H]1O [Amikacin] | the vast majority of isolates exhibited phenotypic susceptibility | 94 | 6 |
| CC1(C)S[C@@H]2[C@H](NC(=O)[C@H](N)c3ccccc3)C(=O)N2[C@H]1C(=O)O [Ampicillin] | the vast majority of isolates exhibited phenotypic resistance | 3 | 97 |
| C[C@H]1[C@H](NC(=O)/C(=N\OC(C)(C)C(=O)O)c2csc(N)n2)C(=O)N1S(=O)(=O)O [Aztreonam] |  | 9 | 91 |
| Cc1nnc(SCC2=C(C(=O)O)N3C(=O)[C@@H](NC(=O)Cn4cnnn4)[C@H]3SC2)s1 [Cefazolin] | the vast majority of isolates exhibited phenotypic resistance | 5 | 95 |
| CO/N=C(\C(=O)N[C@@H]1C(=O)N2C(C(=O)[O-])=C(C[N+]3(C)CCCC3)CS[C@H]12)c1csc(N)n1 [Cefepime] |  | 10 | 90 |
| CO/N=C(\C(=O)N[C@@H]1C(=O)N2C(C(=O)O)=C(COC(C)=O)CS[C@H]12)c1csc(N)n1 [Cefotaxime] |  | 9 | 91 |
| CO[C@@]1(NC(=O)Cc2cccs2)C(=O)N2C(C(=O)O)=C(COC(N)=O)CS[C@@H]21 [Cefoxitin] |  | 79 | 21 |
| CC(C)(O/N=C(\C(=O)N[C@@H]1C(=O)N2C(C(=O)[O-])=C(C[n+]3ccccc3)CS[C@H]12)c1csc(N)n1)C(=O)O [Ceftazidime] |  | 9 | 91 |
| CO/N=C(\C(=O)N[C@@H]1C(=O)N2C(C(=O)O)=C(CSc3nc(=O)c(=O)[nH]n3C)CS[C@H]12)c1csc(N)n1 [Ceftriaxone] |  | 8 | 92 |
| CO/N=C(\C(=O)N[C@@H]1C(=O)N2C(C(=O)O)=C(COC(N)=O)CS[C@H]12)c1ccco1 [Cefuroxime] |  | 7 | 93 |
| C[C@@H](O)[C@H]1C(=O)N2C(C(=O)O)=C(S[C@@H]3CN[C@H](C(=O)Nc4cccc(C(=O)O)c4)C3)[C@H](C)[C@H]12 [Ertapenem] | the vast majority of isolates exhibited phenotypic susceptibility | 98 | 4 |
| C[C@@H](O)[C@H]1C(=O)N2C(C(=O)O)=C(SCCN=CN)C[C@H]12 [Imipenem] |  | 97 | 3 |
| C[C@H]1COc2c(N3CCN(C)CC3)c(F)cc3c(=O)c(C(=O)O)cn1c23 [Levofloxacin] |  | 19 | 81 |
| C[C@@H](O)[C@H]1C(=O)N2C(C(=O)O)=C(S[C@@H]3CN[C@H](C(=O)N(C)C)C3)[C@H](C)[C@H]12 [Meropenem] | the vast majority of isolates exhibited phenotypic susceptibility | 98 | 2 |
| CCN1CCN(C(=O)N[C@@H](C(=O)N[C@@H]2C(=O)N3[C@@H]2SC(C)(C)[C@@H]3C(=O)O)c2ccccc2)C(=O)C1=O [Piperacillin] | the vast majority of isolates exhibited phenotypic resistance | 4 | 96 |
| CN(C)[C@@H]1C(O)=C(C(N)=O)C(=O)[C@@]2(O)C(O)=C3C(=O)c4c(O)cccc4[C@@](C)(O)[C@H]3C[C@@H]12 [Tetracycline] |  | 32 | 68 |
| CN(C)c1cc(NC(=O)CNC(C)(C)C)c(O)c2c1C[C@H]1C[C@H]3[C@H](N(C)C)C(O)=C(C(N)=O)C(=O)[C@@]3(O)C(O)=C1C2=O [Tigecycline] | the vast majority of isolates exhibited phenotypic susceptibility | 99.6 | 0.4 |
| NC[C@H]1O[C@H](O[C@H]2[C@H](O)[C@@H](O[C@H]3O[C@H](CO)[C@@H](O)[C@H](N)[C@H]3O)[C@H](N)C[C@@H]2N)[C@H](N)C[C@@H]1O [Tobramycin] |  | 45 | 55 |
| Amoxicillin/K Clavulanate |  | 43 | 57 |
| Ampicillin/Sulbactam |  | 16 | 84 |
| Gentamicin |  | 61 | 39 |
| Piperacillin/Tazobactam |  | 84 | 16 |
| Ticarcillin/K Clavulanate |  | 56 | 44 |
| Trimethoprim/Sulfamethoxazole |  | 36 | 64 |
